Laboratory results from patent US20070027143A1, “Novel substituted 2,3-benzodiazepine derivatives” (priority 2003, published 2007).
Where two headings read alike, the source gives them in different places. Marks after values point to notes of the source that are not given here.

What was measured:
Format in all cases: in vivo
rats = experiment: Inhibition of focal ischemia, middle cerebral artery occlusion (MCAO) test
Method in brief: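 In a rat middle cerebral artery occlusion model, infarcted area was measured 24 h later by TTC staining and computer-assisted scanning. Values were compared with a vehicle-treated control group.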

BN rats [1] = experiment: Bronchial hyperresponsiveness of ovalbumin sensitized, antigen challenged BN rats (tracheal rings, acetylcholine); details: 3.0 mg/kg po, 2 hours pre-challenge, mean ± SE
Description: (§1) Bronchial hyperresponsiveness (BHR) and airway eosinophilia (AEP) are characteristic features of bronchial asthma. BHR is typified by an exaggerated response to a wide variety of stimuli that can induce an increased resistance to airflow in the airways. AEP is a result of prolonged eosinophil infiltration, mast cell, and T cell activation in the airways. In actively (e.g., ovalbumin) immunized rats (e.g., Brown Norway [BN] strain), repeated sensitization followed by antigenic challenge results in lung eosinophilia and bronchial hyperresponsiveness to different spasmogens (e.g., acetylcholine). This is the most frequently employed model for studying potential anti-asthmatic effects of new chemical entities.
(§2) BN rats were actively immunized with allergen (ovalbumin). On day one, rats were sensitized with the subcutaneous administration of ovalbumin suspended in Al(OH)3 (2.5 μg ovalbumin +20 mg Al(OH)3 in 0.5 ml saline). Booster injections (same dose and same route) were given at day 14 and 21. Simultaneously at each occasion 0.25 ml of Bordatella pentussis vaccine was injected intraperitoneally. On day 28, animals were challenged by inhalation of the antigen (vaporized 1% OVA solution for 1 hour). Test compounds were administered orally 2 hours pre-challenge.
(§3) 48 hours following challenge, they were sacrificed by an overdose of urethane (4-5 ml of 15% urethane given i.p.), bronchoalveolar lavage fluid (BALF) was obtained, and tracheae dissected from the animals. Eosinophil cell count (cells/ml BALF) was determined manually using a selective stain for eosinophils and counting the cells in a Buerker chamber. BHR was determined using tracheal rings suspended in an organ bath. After an equilibration period of 30 minutes, cumulative concentration response curves to acetylcholine were determined. Maximal response of control (unchallenged, non-treated) tracheal rings is obtained at 10^−3 M acetylcholine. The height of this response is defined as 100%. All other contractions are expressed as a percentage and related to the control response.

CD1 mice [2] = experiment: Anti-tremor effect, GYKI 20039 induced tremor; details: Mus musculus; po., Litchfield-Wilcoxon, limits in brackets; read-out: ED50, tremor induced by GYKI 20039 10 mg/kg ip.
CD1 mice [3] = experiment: Anticonvulsant activity, 4-aminopyridine induced seizures; details: Mus musculus; po.; read-out: 4-AP ED50
Method in brief: (§4)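 Male CD1 mice (10 per dose) received test compounds orally at three dose levels, usually 60 min before chemical induction of clonic-tonic seizures and lethality.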

CD1 mice [4] = experiment: Anticonvulsant activity, bicuculline induced seizures; details: Mus musculus; po.; read-out: Bicuculline ED50
Method in brief: as §4

CD1 mice [5] = experiment: Muscle relaxant activity, inclined screen test; details: Mus musculus, ip
BN rats [6] = experiment: Airway eosinophilia of ovalbumin sensitized, antigen challenged BN rats (BALF eosinophil count); details: 3.0 mg/kg po, 2 hours pre-challenge, mean ± SE
Description: as §1, §2, §3

CD1 mice [7] = experiment: Anticonvulsant activity, 3-mercapto-propionic acid induced seizures; details: Mus musculus; po.; read-out: 3-MPA ED50
Method in brief: as §4

Lewis rats = experiment: Autoimmune encephalomyelitis model, neurological (clinical) symptoms; details: for Neurological symptoms (change, %): day 24 after immunization; for change in vivo at 1.875 mg/kg / change in vivo at 3.75 mg/kg / change in vivo at 7.5 mg/kg / change in vivo at 15 mg/kg: Rattus norvegicus, ip, read-out: Neurological symptoms (change compared to controls, %)
CD1 mice [8] = experiment: Anticonvulsant activity, nicotine induced seizures; details: Mus musculus; po.
Method in brief: as §4

CD1 mice [9] = experiment: Anticonvulsant activity, pentetrazole induced seizures; details: Mus musculus; po.; read-out: Pentetrazol ED50
Method in brief: as §4

CD1 mice [10] = experiment: Anticonvulsant activity, strychnine induced seizures; details: Mus musculus; po.; read-out: Strychnine ED50
Method in brief: as §4

CD1 mice [11] = experiment: Anti-tremor effect, oxotremorine induced tremor

Compound: Cc1nnc(N2N=C(c3ccc(N)cc3)c3cc4c(cc3C[C@H]2C)OCO4)s1 [Example 86, (R)-5-(4-Aminophenyl)-8-methyl-7-(5-methyl-1,3,4-thiadiazol-2-yl)-8,9-dihydro-7H-1,3-dioxolo-[4,5-h][2,3]benzodiazepine]
- Decrease of the infracted area in % compared to that of the control (rats; 1 mg/kg iv. 6x in every 30 min, first treatment 180 min after occlusion): 35* %
- Neuroprotective activity when administered 3 h after the occlusion (rats; result in words): significant activity
- MAX: relative contraction compared to the control at a maximal Ach concentration (BN rats [1]): 81 ± 14%
- pEC50 of acetylcholine (BN rats [1]): 4.95 ± 0.59 −log M
- ED50 (CD1 mice [2]): 6.8 mg/kg
- ED50 (CD1 mice [3]): 10.1 mg/kg
- ED50 (CD1 mice [4]): 4.6 mg/kg
- ED50 (CD1 mice [5]): 3.9 mg/kg
- BALF eosinophil number (BN rats [6]): 1.32 ± 0.32 ×10^6/ml
- ED50 (CD1 mice [7]): 4 mg/kg
- Neurological symptoms (change, %) (Lewis rats; 1.875 mg/kg ip., female rats): −42%
- Neurological symptoms (change, %) (Lewis rats; 1.875 mg/kg ip., male rats): +54%
- Neurological symptoms (change, %) (Lewis rats; 3.75 mg/kg ip., female rats): −21%
- Neurological symptoms (change, %) (Lewis rats; 3.75 mg/kg ip., male rats): −72%
- Neurological symptoms (change, %) (Lewis rats; 7.5 mg/kg ip., female rats): −62%
- Neurological symptoms (change, %) (Lewis rats; 7.5 mg/kg ip., male rats): −66%
- Neurological symptoms (change, %) (Lewis rats; 15 mg/kg ip., female rats): −85%
- Neurological symptoms (change, %) (Lewis rats; 15 mg/kg ip., male rats): −67%
- change in vivo at 1.875 mg/kg (Lewis rats; 1.875 mg/kg ip., female rats, 0-8 day): -40%
- change in vivo at 1.875 mg/kg (Lewis rats; 1.875 mg/kg ip., female rats, 0-14 day): -39%
- change in vivo at 1.875 mg/kg (Lewis rats; 1.875 mg/kg ip., male rats, 0-8 day): 5%
- change in vivo at 1.875 mg/kg (Lewis rats; 1.875 mg/kg ip., male rats, 0-14 day): -8%
- change in vivo at 3.75 mg/kg (Lewis rats; 3.75 mg/kg ip., female rats, 0-8 day): -3%
- change in vivo at 3.75 mg/kg (Lewis rats; 3.75 mg/kg ip., female rats, 0-14 day): -18%
- change in vivo at 3.75 mg/kg (Lewis rats; 3.75 mg/kg ip., male rats, 0-8 day): -70%
- change in vivo at 3.75 mg/kg (Lewis rats; 3.75 mg/kg ip., male rats, 0-14 day): -77%
- change in vivo at 7.5 mg/kg (Lewis rats; 7.5 mg/kg ip., female rats, 0-8 day): -62%
- change in vivo at 7.5 mg/kg (Lewis rats; 7.5 mg/kg ip., female rats, 0-14 day): -66%
- change in vivo at 7.5 mg/kg (Lewis rats; 7.5 mg/kg ip., male rats, 0-8 day): -65%
- change in vivo at 7.5 mg/kg (Lewis rats; 7.5 mg/kg ip., male rats, 0-14 day): -70%
- change in vivo at 15 mg/kg (Lewis rats; 15 mg/kg ip., female rats, 0-8 day): -97%
- change in vivo at 15 mg/kg (Lewis rats; 15 mg/kg ip., female rats, 0-14 day): -85%
- change in vivo at 15 mg/kg (Lewis rats; 15 mg/kg ip., male rats, 0-8 day): -93%
- change in vivo at 15 mg/kg (Lewis rats; 15 mg/kg ip., male rats, 0-14 day): -67%
- Activity compared to the reference compound (histopathological and pharmacological investigations) (Lewis rats; result in words): more active than the reference compound GYKI 53773
- ED50 (CD1 mice [8]): 16.5 mg/kg
- ED50 (CD1 mice [9]): 10 mg/kg
- ED50 (CD1 mice [10]): 10.6 mg/kg
- ED50 (CD1 mice [11]; Mus musculus, po., Litchfield-Wilcoxon, limits in brackets, read-out: ED50, tremor induced by Oxotremorin 1 mg/kg ip.): 4.3 mg/kg
- Anti-tremor activity compared to the reference compounds (CD1 mice [11]; oxotremorine, GYKI 20039 and harmaline, result in words): more active than the reference compounds GYKI 53773 and GYKI 52466
